From paper PMC11218446, “Antibacterial efficacy and membrane mechanism of action of the Serratia-derived non-ionic lipopeptide, serrawettin W2-FL10” (Microbiology Spectrum, 2024)
“And” between values parts separate entries of the source, which are not always exact repeats. Equal entries are not always repeated.

Key:
S. aureus ATCC 25923 = experiment: Broth microdilution assay (OD 600 nm); assay type: cell-based, Staphylococcus aureus
Protocol: (§1) Serrawettin W2-FL10 (95% pure) was tested for antibacterial activity using a broth microdilution susceptibility assay ([6]), with melittin included as an antibiotic control. The serrawettin W2-FL10 was prepared in 70% MeCN to 1.00 mg/mL, from which aliquots were prepared using 70% MeCN to a concentration of 50 µg/mL or 500 µg/mL, while aliquots of melittin were prepared using analytical quality H2O to 128 µg/mL. Fifty microliters of the respective W2-FL10 aliquots or melittin were dispensed into a clear 96-well plate and a microdilution (in 70% MeCN for W2-FL10 or analytical quality H2O for melittin) was performed within the plate. The plate was air-dried to remove the solvent and placed in a desiccator with chloroform for 20 min for sterilization.
(§2) All the cultures (inoculated into 5 mL MHB, or 5 mL TSB for Listeria and Enterococcus strains) were incubated at 37°C to reach an optical density (OD) of 0.4 at 600 nm (∼10^7 CFU/mL). A 1:20 dilution of the test strain (final concentration of ∼10^5 CFU/mL) was prepared and 100 µL was dispensed into each well (final concentration of W2-FL10 at 1.5–125 µg/mL and melittin at 2–32 µg/mL). Sterile broth and the OD-adjusted inoculum were included as positive controls, while sterile broth (no inoculum) was included as a negative control. The 96-well plate was incubated for 18 h at 37°C. All the tests were performed in triplicate, with independent duplicates. Following incubation, the absorbance was measured using a microtiter plate reader at 600 nm. The 50% growth inhibition concentration (IC50) was determined using GraphPad Prism version 5 for Windows [GraphPad Software, San Diego, USA (www.graphpad.com)]. A sigmodal curve with variable slope was fitted to each set of dose-repose data according to Rautenbach et al. ([17]) using equation (1):
(§3) (1) Y=bottom+(top−bottom)/1+10^logIC50×Activity slope
(§4) The “top” and “bottom” are the maximum and minimum inhibition responses, respectively, for a particular set of dose-response data, while the activity slope is related to the Hill slope of a sigmoidal binding curve ([16]). […] The MIC value was determined for each set of dose-response data as the lowest concentration, resulting in ≥90% inhibition of the target cell growth. In addition to the MIC and IC50 inhibition parameters, an inhibition concentration factor (ICF), was calculated as outlined in Rautenbach et al. ([17]). The ICF is indicative of the concentration increase from the highest concentration where no activity is observed to the MIC of a compound.

S. aureus RN4220 = experiment: Broth microdilution assay (OD 600 nm); assay type: cell-based, Staphylococcus aureus
Protocol: as §1, §2, §3, §4

E. faecium S1 = experiment: Broth microdilution assay (OD 600 nm); assay type: cell-based, Enterococcus faecium
Protocol: as §1, §2, §3, §4

three S. aureus strains = experiment: Time-kill kinetics, summary; assay type: cell-based, Staphylococcus aureus; settings: at MIC
Protocol: Time-kill assays were performed for W2-FL10 against S. aureus ATCC 25923, S. aureus RN4220, and MRSA Xen 30 to determine the bacteriostatic (suppresses growth) or bactericidal (>3 log reduction in CFUs) activity of the compound, allowing for the determination of cell survival percentage per minute ([19]).
To determine the kill rate of the lipopeptide, exponentially growing S. aureus strains were prepared as described in the “Antibacterial activity: broth microdilution assay” section (OD600 = 0.4, ~10^7 CFU/mL; 1:20 dilution was conducted to obtain ~10^5 CFU/mL) ([24], [55]). Thereafter, 200 µL of the bacterial suspension (in MHB) was dispensed into a clear 96-well plate containing 12.5 or 25 µg/mL of W2-FL10, and plates were incubated at 37°C. Aliquots of 20 µL were collected at different time intervals (0, 1, 2, 4, 8, and 24 h), diluted in 180 µL PBS in a clear 96-well plate (from 10^−2 to 10^−8), and 100 µL of the respective dilution was spread onto LB agar plates. Undiluted samples of 20 µL were spot-plated onto LB agar to confirm the absence of cells at 8 and/or 24 h. The LB agar plates were then incubated overnight at 37°C and the CFU/mL was determined. A positive control of bacterial cells without peptide and a negative control with only LB were included. All the tests were performed in triplicate, with independent duplicates. […]

[1] = 50% growth inhibition, sigmoidal curve fit, n = 3
[2] = inhibition concentration factor
[3] = ≥90% growth inhibition, OD 600 nm, MHB, 18 h 37°C

## CCCCCCCC1CC(=O)N[C@H](CC(C)C)C(=O)N[C@@H](CO)C(=O)N[C@@H]([C@@H](C)O)C(=O)N[C@H](Cc2ccccc2)C(=O)N[C@@H](CC(C)C)C(=O)O1 (stereo partly shown) [W2-FL10, serrawettin W2-FL10]
S. aureus ATCC 25923; [1]
  IC50 ± SD: 5.5 ± 0.3 (3) µg/mL
S. aureus ATCC 25923; LC50 (CHO)/IC50
  Selectivity index: 5.3
S. aureus ATCC 25923; [2]
  ICF (MIC/IC50)^2: 5.2
S. aureus ATCC 25923; [3]
  MIC: 12.5 μg/mL and 12.5 (17.1) μg/mL
S. aureus RN4220; [1]
  IC50 ± SD: 5.7 ± 0.6 (3) µg/mL
S. aureus RN4220; LC50 (CHO)/IC50
  Selectivity index: 5.1
S. aureus RN4220; [2]
  ICF (MIC/IC50)^2: 4.9
S. aureus RN4220; [3]
  MIC: 12.5 μg/mL and 12.5 (17.1) μg/mL
E. faecium S1; [1]
  IC50 ± SD: 5.4 ± 0.1 (3) µg/mL
E. faecium S1; LC50 (CHO)/IC50
  Selectivity index: 5.4
E. faecium S1; [2]
  ICF (MIC/IC50)^2: 5.9
E. faecium S1; ≥90% growth inhibition, OD 600 nm, TSB, 18 h 37°C
  MIC: 12.5 μg/mL and 12.5 (17.1) μg/mL
Three S. aureus strains
  time within which >90% bactericidal action occurred: 4 to 8 h
